# Measurements taken from publication PMC7093416, “Selective USP7 inhibition elicits cancer cell killing through a p53-dependent mechanism” (Scientific Reports, 2020).
# System: panel of 484 cancer cell lines
# Assay: PRISM cancer cell line profiling, 5 days
# Type: cell-based
# Parameters: AUC: unit not given beside the values
# Description: Cancer cell line profiling was performed using the Broad’s PRISM platform. Cell treatment and data analysis were performed as described in Yu et al[42]. Raw Luminex signal was converted to AUC values for each cell line as described. The resulting AUC profile for each compound was modeled against DepMap using the limma package in R[71]. Because hotspot mutation analysis was performed against DepMap, TP53 annotations in Fig. 6c,d are directly from DepMap.
structure (smiles),measurement,setting,value
CN1CCN(CCC(=O)Nc2ccc3c(=O)n(CC4(O)CCN(C(=O)[C@H](CCCNC(=O)c5ccc6c(Cl)c7c(nc6c5)CCCC7)Cc5ccccc5)CC4)cnc3c2)CC1 [XL177B],AUC,RT112_URINARY_TRACT,0.9816
same,AUC,RVH421_SKIN,0.8995
same,AUC,S117_SOFT_TISSUE,0.9955
same,AUC,SBC5_LUNG,1.053
same,AUC,SCABER_URINARY_TRACT,1.101
same,AUC,SCC25_UPPER_AERODIGESTIVE_TRACT,0.9004
same,AUC,SF126_CENTRAL_NERVOUS_SYSTEM,0.9271
same,AUC,SF295_CENTRAL_NERVOUS_SYSTEM,1.235
same,AUC,SF539_CENTRAL_NERVOUS_SYSTEM,0.9498
same,AUC,SH4_SKIN,0.9224
same,AUC,SH10TC_STOMACH,1.086
same,AUC,SIMA_AUTONOMIC_GANGLIA,1.191
same,AUC,SJSA1_BONE,1.13
same,AUC,SKES1_BONE,0.9809
same,AUC,SKHEP1_LIVER,0.9481
same,AUC,SKLU1_LUNG,1.195
same,AUC,SKMEL2_SKIN,0.945
same,AUC,SKMEL3_SKIN,1.224
same,AUC,SKMEL5_SKIN,1.137
same,AUC,SKMEL24_SKIN,1.275
same,AUC,SKMEL30_SKIN,1.1049
same,AUC,SKMES1_LUNG,1.035
same,AUC,SKNAS_AUTONOMIC_GANGLIA,1.162
same,AUC,SKNBE2_AUTONOMIC_GANGLIA,0.9661
same,AUC,SKOV3_OVARY,1.113
same,AUC,SKUT1_SOFT_TISSUE,1.098
same,AUC,SNB75_CENTRAL_NERVOUS_SYSTEM,1.029
same,AUC,SNGM_ENDOMETRIUM,1.214
same,AUC,SNU46_UPPER_AERODIGESTIVE_TRACT,1.023
same,AUC,SNU61_LARGE_INTESTINE,1.357
same,AUC,SNU81_LARGE_INTESTINE,1.469
same,AUC,SNU213_PANCREAS,0.9253
same,AUC,SNU245_BILIARY_TRACT,1.172
same,AUC,SNU308_BILIARY_TRACT,1.2193
same,AUC,SNU398_LIVER,1.038
same,AUC,SNU407_LARGE_INTESTINE,0.8767
same,AUC,SNU410_PANCREAS,1.127
same,AUC,SNU423_LIVER,1.115
same,AUC,SNU449_LIVER,0.9807
same,AUC,SNU466_CENTRAL_NERVOUS_SYSTEM,0.8672
same,AUC,SNU601_STOMACH,1.056
same,AUC,SNU668_STOMACH,0.9502
same,AUC,SNU685_ENDOMETRIUM,0.9823
same,AUC,SNU719_STOMACH,1.037
same,AUC,SNU738_CENTRAL_NERVOUS_SYSTEM,1.115
same,AUC,SNU761_LIVER,1.164
same,AUC,SNU840_OVARY,1.115
same,AUC,SNU869_BILIARY_TRACT,1.118
same,AUC,SNU886_LIVER,1.231
same,AUC,SNU1041_UPPER_AERODIGESTIVE_TRACT,1.134
same,AUC,SNU1066_UPPER_AERODIGESTIVE_TRACT,1.18
same,AUC,SNU1076_UPPER_AERODIGESTIVE_TRACT,0.9825
same,AUC,SNU1077_ENDOMETRIUM,1.083
same,AUC,SNU1079_BILIARY_TRACT,1.166
same,AUC,SNU1105_CENTRAL_NERVOUS_SYSTEM,1.105
same,AUC,SNU1196_BILIARY_TRACT,1.09
same,AUC,SNU1214_UPPER_AERODIGESTIVE_TRACT,0.9564
same,AUC,SNUC2A_LARGE_INTESTINE,1.042
same,AUC,SNUC4_LARGE_INTESTINE,1.117
same,AUC,SNUC5_LARGE_INTESTINE,1.097
same,AUC,SQ1_LUNG,1.099
same,AUC,SUIT2_PANCREAS,1.021
same,AUC,SW480_LARGE_INTESTINE,1.084
same,AUC,SW579_THYROID,1.209
same,AUC,SW620_LARGE_INTESTINE,1.165
same,AUC,SW780_URINARY_TRACT,1.236
same,AUC,SW837_LARGE_INTESTINE,1.0717
same,AUC,SW900_LUNG,1.235
same,AUC,SW948_LARGE_INTESTINE,1.132
same,AUC,SW1088_CENTRAL_NERVOUS_SYSTEM,1.121
same,AUC,SW1271_LUNG,1.015
same,AUC,SW1353_BONE,0.6793
same,AUC,SW1573_LUNG,1.097
same,AUC,SW1710_URINARY_TRACT,1.102
same,AUC,SW1990_PANCREAS,1.083
same,AUC,T3M10_LUNG,1.12
same,AUC,T24_URINARY_TRACT,1.071
same,AUC,T47D_BREAST,1.066
same,AUC,T98G_CENTRAL_NERVOUS_SYSTEM,0.9969
same,AUC,TCCPAN2_PANCREAS,1.118
same,AUC,TCCSUP_URINARY_TRACT,1.104
same,AUC,TE1_OESOPHAGUS,1.328
same,AUC,TE4_OESOPHAGUS,1.033
same,AUC,TE5_OESOPHAGUS,0.9565
same,AUC,TE6_OESOPHAGUS,1.06
same,AUC,TE8_OESOPHAGUS,0.9218
same,AUC,TE9_OESOPHAGUS,1.298
same,AUC,TE10_OESOPHAGUS,0.9856
same,AUC,TE11_OESOPHAGUS,1.076
same,AUC,TEN_ENDOMETRIUM,0.9874
same,AUC,TM31_CENTRAL_NERVOUS_SYSTEM,1.105
same,AUC,TM87_SOFT_TISSUE,1.039
same,AUC,TOV21G_OVARY,0.7718
same,AUC,TOV112D_OVARY,0.9778
same,AUC,TT2609C02_THYROID,1.023
same,AUC,TT_OESOPHAGUS,1.189
same,AUC,TT_THYROID,0.9532
same,AUC,TUHR4TKB_KIDNEY,1.093
same,AUC,U2OS_BONE,1.264
same,AUC,U118MG_CENTRAL_NERVOUS_SYSTEM,1.3332
same,AUC,U251MG_CENTRAL_NERVOUS_SYSTEM,1.04
same,AUC,UACC62_SKIN,0.9925
same,AUC,UACC257_SKIN,0.9688
same,AUC,UBLC1_URINARY_TRACT,1.0896
same,AUC,UMUC1_URINARY_TRACT,1.045
same,AUC,UO31_KIDNEY,1.143
same,AUC,VMCUB1_URINARY_TRACT,0.9508
same,AUC,VMRCRCW_KIDNEY,1.069
same,AUC,VMRCRCZ_KIDNEY,1.083
same,AUC,WM88_SKIN,1.093
same,AUC,WM793_SKIN,1.133
same,AUC,WM983B_SKIN,1.143
same,AUC,WM1799_SKIN,0.7611
same,AUC,WM2664_SKIN,1.168
same,AUC,YAPC_PANCREAS,1.439
same,AUC,YD8_UPPER_AERODIGESTIVE_TRACT,1.127
same,AUC,YD10B_UPPER_AERODIGESTIVE_TRACT,0.9769
same,AUC,YD15_SALIVARY_GLAND,0.9723
same,AUC,YD38_UPPER_AERODIGESTIVE_TRACT,1.117
same,AUC,YH13_CENTRAL_NERVOUS_SYSTEM,1.068
same,AUC,YKG1_CENTRAL_NERVOUS_SYSTEM,1.107
same,AUC,ZR751_BREAST,0.9538
